These are literature values, as cited in patent US20240000793A1, “OPHTHALMIC COMPOSITION CONTAINING LEVOFLOXACIN AND KETOROLAC, METHOD FOR THE PREPARATION AND USE THEREOF” (NTC S.R.L., priority 2020, published 2024).

For data set [1] the following is noted: versus pH.
For data set [2] the following is noted: recent studies.

On to `O=C(c1ccccc1)c1ccc2n1CCC2C(=O)O` (centres unmarked) [Ketorolac tromethamine], for which the Solubility profile result in data set [1] was “pH dependent trend, significantly increasing at pH value>6.0”. Take `C[C@H]1COc2c(N3CCN(C)CC3)c(F)cc3c(=O)c(C(=O)O)cn1c23` [Levofloxacin]: in data set [2], the “Time in the eye at levels above the minimum inhibitory concentration (MIC)” value is “more than six hours”.
